One data set concerns the target CYP2C9 (Homo sapiens, UniProt P11712). To be noted: in vitro studies; cited from earlier work.
Data set [1] concerns the target CYP3A (Homo sapiens, UniProt P08684). To be noted: in vitro studies; CYP3A4; cited from earlier work.
For data set [2] the following is noted: cited from earlier work; for reduction of mean AUC with high-fat meals: multiple doses.
The conditions of data set [3]: major metabolite of voriconazole; cited from earlier work.
The nature of data set [4]: PK of systemically administered (oral or IV) voriconazole, VFEND package insert and literature. The format is in vivo, human. To be noted: Imax = Cmax/MW.
In a further data set the target is T1, CYP2B6 (Homo sapiens, UniProt P20813).
T1 sequence (P20813 1-491): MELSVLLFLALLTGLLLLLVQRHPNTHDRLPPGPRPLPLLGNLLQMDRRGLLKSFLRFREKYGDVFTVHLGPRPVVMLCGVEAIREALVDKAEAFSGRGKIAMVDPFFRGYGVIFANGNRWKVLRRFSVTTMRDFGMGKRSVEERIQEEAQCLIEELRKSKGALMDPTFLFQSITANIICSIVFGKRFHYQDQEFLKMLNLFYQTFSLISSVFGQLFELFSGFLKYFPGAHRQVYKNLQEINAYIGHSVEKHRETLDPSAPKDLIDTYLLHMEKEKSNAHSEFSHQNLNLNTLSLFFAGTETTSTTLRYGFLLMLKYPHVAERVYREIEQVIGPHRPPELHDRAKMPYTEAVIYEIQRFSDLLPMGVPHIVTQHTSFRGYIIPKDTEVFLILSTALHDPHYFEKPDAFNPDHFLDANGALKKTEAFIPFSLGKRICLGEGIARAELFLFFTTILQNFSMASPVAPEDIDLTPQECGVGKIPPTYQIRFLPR
The note with it: total drug, Ki values based on Jeong 2009; cited from earlier work.

The subject of data set [5] is CYP3A. The note with it: CYP3A; total drug; Ki values based on Jeong 2009; cited from earlier work.
The conditions of data set [6]: independent of plasma concentration (approx. 0.9-15 μg/mL); cited from earlier work.
Setting [7] is: 3 mg/kg IV q12h, geometric mean (% CV).
Where [8] appears, read: 4 mg/kg IV q12h, geometric mean (% CV).
[9] abbreviates: 6 mg/kg IV (loading dose), geometric mean (% CV).
Where [10] appears, read: 200 mg oral q12h, geometric mean (% CV).
Where [11] appears, read: 300 mg oral q12h, geometric mean (% CV).
Setting [12] is: 400 mg oral (loading dose), geometric mean (% CV).

Molecules are shown by their SMILES. Read-outs that look alike come from different tables or passages of the source. Bounds are passed on as bounds.

CYP3A (Homo sapiens, UniProt P08684), sequence (P08684 2-503): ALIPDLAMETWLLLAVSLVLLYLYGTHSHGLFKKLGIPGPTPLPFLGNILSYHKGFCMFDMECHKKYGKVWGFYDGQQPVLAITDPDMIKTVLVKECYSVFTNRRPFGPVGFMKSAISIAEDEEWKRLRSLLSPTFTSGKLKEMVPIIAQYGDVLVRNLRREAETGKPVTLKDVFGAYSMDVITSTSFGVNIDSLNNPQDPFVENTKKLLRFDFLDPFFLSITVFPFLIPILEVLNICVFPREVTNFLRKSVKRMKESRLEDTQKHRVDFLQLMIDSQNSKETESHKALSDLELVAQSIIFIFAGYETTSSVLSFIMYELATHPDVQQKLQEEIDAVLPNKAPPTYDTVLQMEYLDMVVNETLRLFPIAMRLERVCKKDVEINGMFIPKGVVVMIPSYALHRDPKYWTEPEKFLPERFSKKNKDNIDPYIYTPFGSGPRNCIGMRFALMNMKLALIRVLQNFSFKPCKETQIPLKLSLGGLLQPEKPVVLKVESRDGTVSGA
CYP2C9, sequence (P11712 whole entry): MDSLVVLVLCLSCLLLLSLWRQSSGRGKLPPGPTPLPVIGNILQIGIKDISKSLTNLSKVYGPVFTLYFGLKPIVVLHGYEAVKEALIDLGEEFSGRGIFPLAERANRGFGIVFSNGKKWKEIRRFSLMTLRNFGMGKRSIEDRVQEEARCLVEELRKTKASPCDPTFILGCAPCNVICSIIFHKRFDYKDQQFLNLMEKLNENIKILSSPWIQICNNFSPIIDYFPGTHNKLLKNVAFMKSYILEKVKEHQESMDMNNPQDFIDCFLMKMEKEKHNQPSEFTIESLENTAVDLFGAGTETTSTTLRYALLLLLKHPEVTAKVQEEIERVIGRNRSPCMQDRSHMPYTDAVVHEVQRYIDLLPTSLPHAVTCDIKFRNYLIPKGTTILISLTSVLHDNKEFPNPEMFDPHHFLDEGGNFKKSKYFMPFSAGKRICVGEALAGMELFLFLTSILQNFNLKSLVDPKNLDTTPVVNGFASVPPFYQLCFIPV

For `C[C@@H](c1nc[n+]([O-])cc1F)[C@](O)(Cn1cncn1)c1ccc(F)cc1F` [N-oxide], the “inhibition of metabolic activity of CYP2C9” value at CYP2C9 is recorded as “inhibits”. At CYP3A [1], the “inhibition of metabolic activity of CYP3A4” value is “inhibits”. Moreover, the “share of circulating radiolabeled metabolites in plasma” value in data set [2] (after radiolabeled voriconazole) is listed as 72%. Besides, the antifungal activity result in data set [3] is listed as “minimal antifungal activity”.
Broadly, the Ki is the equilibrium dissociation constant of an inhibitor or competing ligand from its target. `C[C@@H](c1ncncc1F)[C@](O)(Cn1cncn1)c1ccc(F)cc1F` [Voriconazole, (2R,3S)-2-(2,4-difluro-phenyl)-3-(5-flouro-4-pyrimidinyl)-1 (1H-1,2,4-triazol-1-yl)2-butanol]: the Imax oral amounted to 6.61 µM in data set [4] (based on 200 mg q12h from VFEND label) and 3.50 µM in data set [4] (based on Cmax from Anderson 2017). The Ki is under 500 nM on CYP2B6 and 660 nM in the data set on CYP3A [5]. The AUC12 is 13.7 (53) μg:h/mL in data set [2] (setting [7]); 33.9 (54) μg:h/mL in data set [2] (setting [8]); 13.9 (32) μg:h/mL in data set [2] (setting [9]); 12.4 (78) μg · h/mL in data set [2] (200 mg oral q12h, adults, geometric mean (% CV)); 12.4 (78) μg:h/mL in data set [2] (setting [10]); 34.0 (53) μg · h/mL in data set [2] (300 mg oral q12h, adults, geometric mean (% CV)). For the same molecule, the AUC12 is 34.0 (53) μg:h/mL in data set [2] (setting [11]); 9.31 (38) μg · h/mL in data set [2] (400 mg oral (loading dose), adults, geometric mean (% CV)); 9.31 (38) μg:h/mL in data set [2] (setting [12]). The Cmax in data set [2] (setting [7]) is 3.03 (25) μg/mL; in data set [2] (setting [8]) it was 4.77 (36) μg/mL; in data set [2] (setting [9]) it was 3.13 (20) μg/mL; in data set [2] (setting [10]) it was 2.31 (48) μg/mL; in data set [2] (setting [11]) it was 4.74 (35) μg/mL; in data set [2] (setting [12]) it was 2.30 (19) μg/mL. Moreover, the Cmax in data set [2] (oral 200 mg dose) is 2310 ng/mL. The “reduction of mean AUC with high-fat meals” value is 37% in data set [2] (oral suspension) and 24% in data set [2] (tablet). Also, in data set [2] (oral or IV administration), the “volume of distribution at steady state” value is 4.6 L/kg. Besides, the oral bioavailability in data set [2] (population PK analysis, healthy subjects (N=207)) was 96%. Also, the Plasma protein binding in data set [6] is 58%.

(Values after patent US20230190735A1 (TFF Pharmaceuticals, Inc., priority 2021, published 2023).)
